# Source: PubChem BioAssay (NCI)
#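 These data come from cells grown in 96-well plates and exposed to compound for 48 hours at five concentrations. GI50 is the concentration that inhibits growth by half. TGI: concentration producing complete growth inhibition.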
# Experiments:
# Experiment in all cases: NCI anticancer screen, dose series, 48 h
# RXF 393 renal = system: RXF 393 renal
# M14 melanoma = system: M14 melanoma
# SK-MEL-5 melanoma = system: SK-MEL-5 melanoma
# T-47D breast = system: T-47D breast
# SK-OV-3 ovarian = system: SK-OV-3 ovarian
# UACC-257 melanoma = system: UACC-257 melanoma
# SF-539 CNS = system: SF-539 CNS
# HCC-2998 colon = system: HCC-2998 colon
# K-562 leukemia = system: K-562 leukemia
# UACC-62 melanoma = system: UACC-62 melanoma
# TK-10 renal = system: TK-10 renal
# IGROV1 ovarian = system: IGROV1 ovarian
# ACHN renal = system: ACHN renal
# NCI-H226 lung = system: NCI-H226 lung
# RPMI-8226 leukemia = system: RPMI-8226 leukemia
# A498 renal = system: A498 renal
# UO-31 renal = system: UO-31 renal
# HS 578T breast = system: HS 578T breast
# SK-MEL-2 melanoma = system: SK-MEL-2 melanoma
# COLO 205 colon = system: COLO 205 colon
# HOP-92 NSCLC = system: HOP-92 NSCLC
# SNB-75 CNS = system: SNB-75 CNS
# MALME-3M melanoma = system: MALME-3M melanoma
# HT29 colon = system: HT29 colon
# A549 NSCLC = system: A549 NSCLC
# HCT-116 colon = system: HCT-116 colon
# OVCAR-8 ovarian = system: OVCAR-8 ovarian
# SK-MEL-28 melanoma = system: SK-MEL-28 melanoma
# CAKI-1 renal = system: CAKI-1 renal
# SF-295 CNS = system: SF-295 CNS
# NCI-H522 lung = system: NCI-H522 lung
# MCF7 breast = system: MCF7 breast
# OVCAR-3 ovarian = system: OVCAR-3 ovarian
# PC-3 prostate = system: PC-3 prostate
# MOLT-4 leukemia = system: MOLT-4 leukemia
# OVCAR-5 ovarian = system: OVCAR-5 ovarian
# MDA-MB-435 = system: MDA-MB-435
# EKVX NSCLC = system: EKVX NSCLC
# SW-620 colon = system: SW-620 colon
# HOP-62 NSCLC = system: HOP-62 NSCLC
# 786-0 renal = system: 786-0 renal
# BT-549 breast = system: BT-549 breast
# LOX IMVI melanoma = system: LOX IMVI melanoma
# CCRF-CEM leukemia = system: CCRF-CEM leukemia
# MDA-MB-231 breast = system: MDA-MB-231 breast
# DU-145 prostate = system: DU-145 prostate
# U251 CNS = system: U251 CNS
# KM12 colon = system: KM12 colon
# SNB-19 CNS = system: SNB-19 CNS
# NCI-H23 lung = system: NCI-H23 lung
# OVCAR-4 ovarian = system: OVCAR-4 ovarian
# SN12C renal = system: SN12C renal
# NCI-H460 lung = system: NCI-H460 lung
# HCT-15 colon = system: HCT-15 colon
# SF-268 CNS = system: SF-268 CNS
# NCI/ADR-RES ovarian = system: NCI/ADR-RES ovarian
# HL-60(TB) leukemia = system: HL-60(TB) leukemia
# SR leukemia = system: SR leukemia
compound,measurement,setting,value
O=C(NN1C(=O)CSC12CCCCC2)c1[nH]c2ccc(F)cc2c1-c1ccccc1,GI50,RXF 393 renal,14.6 µM
same,TGI,RXF 393 renal,29.7 µM
same,GI50,M14 melanoma,38.2 µM
same,TGI,M14 melanoma,> 100 µM
same,GI50,SK-MEL-5 melanoma,41.4 µM
same,TGI,SK-MEL-5 melanoma,> 100 µM
same,GI50,T-47D breast,35.6 µM
same,TGI,T-47D breast,> 100 µM
same,GI50,SK-OV-3 ovarian,35.8 µM
same,TGI,SK-OV-3 ovarian,> 100 µM
same,GI50,UACC-257 melanoma,23.3 µM
same,TGI,UACC-257 melanoma,56.9 µM
same,GI50,SF-539 CNS,21.8 µM
same,TGI,SF-539 CNS,37.2 µM
same,GI50,HCC-2998 colon,34.8 µM
same,TGI,HCC-2998 colon,92.5 µM
same,GI50,K-562 leukemia,21.3 µM
same,TGI,K-562 leukemia,52.7 µM
same,GI50,UACC-62 melanoma,15.2 µM
same,TGI,UACC-62 melanoma,54.7 µM
same,GI50,TK-10 renal,19.4 µM
same,TGI,TK-10 renal,35.7 µM
same,GI50,IGROV1 ovarian,14.4 µM
same,TGI,IGROV1 ovarian,32.9 µM
same,GI50,ACHN renal,20 µM
same,TGI,ACHN renal,42.9 µM
same,GI50,NCI-H226 lung,28.1 µM
same,TGI,NCI-H226 lung,77 µM
same,GI50,RPMI-8226 leukemia,15.7 µM
same,TGI,RPMI-8226 leukemia,37 µM
same,GI50,A498 renal,27.1 µM
same,TGI,A498 renal,76.5 µM
same,GI50,UO-31 renal,27.8 µM
same,TGI,UO-31 renal,80.9 µM
same,GI50,HS 578T breast,21.8 µM
same,TGI,HS 578T breast,82.8 µM
same,GI50,SK-MEL-2 melanoma,34.6 µM
same,TGI,SK-MEL-2 melanoma,> 100 µM
same,GI50,COLO 205 colon,36.8 µM
same,TGI,COLO 205 colon,> 100 µM
same,GI50,HOP-92 NSCLC,17.8 µM
same,TGI,HOP-92 NSCLC,40.9 µM
same,GI50,SNB-75 CNS,18.5 µM
same,TGI,SNB-75 CNS,36.2 µM
same,GI50,MALME-3M melanoma,20.2 µM
same,TGI,MALME-3M melanoma,43.5 µM
same,GI50,HT29 colon,17.8 µM
same,TGI,HT29 colon,36.2 µM
same,GI50,A549 NSCLC,16.7 µM
same,TGI,A549 NSCLC,30.6 µM
same,GI50,HCT-116 colon,16.7 µM
same,TGI,HCT-116 colon,31.5 µM
same,GI50,OVCAR-8 ovarian,18 µM
same,TGI,OVCAR-8 ovarian,31.9 µM
same,GI50,SK-MEL-28 melanoma,28.2 µM
same,TGI,SK-MEL-28 melanoma,93.2 µM
same,GI50,CAKI-1 renal,31.9 µM
same,TGI,CAKI-1 renal,> 100 µM
same,GI50,SF-295 CNS,22.2 µM
same,TGI,SF-295 CNS,40 µM
same,GI50,NCI-H522 lung,19.1 µM
same,TGI,NCI-H522 lung,58.7 µM
same,GI50,MCF7 breast,19.4 µM
same,TGI,MCF7 breast,37.3 µM
same,GI50,OVCAR-3 ovarian,18.8 µM
same,TGI,OVCAR-3 ovarian,32.9 µM
same,GI50,PC-3 prostate,18.8 µM
same,TGI,PC-3 prostate,35.9 µM
same,GI50,MOLT-4 leukemia,13.9 µM
same,TGI,MOLT-4 leukemia,41.7 µM
same,GI50,OVCAR-5 ovarian,37.6 µM
same,TGI,OVCAR-5 ovarian,> 100 µM
same,GI50,MDA-MB-435,21.8 µM
same,TGI,MDA-MB-435,52.9 µM
same,GI50,EKVX NSCLC,83 µM
same,TGI,EKVX NSCLC,> 100 µM
same,GI50,SW-620 colon,26.6 µM
same,TGI,SW-620 colon,87.5 µM
same,GI50,HOP-62 NSCLC,19.2 µM
same,TGI,HOP-62 NSCLC,41.2 µM
same,GI50,786-0 renal,26 µM
same,TGI,786-0 renal,49.8 µM
same,GI50,BT-549 breast,33.8 µM
same,TGI,BT-549 breast,> 100 µM
same,GI50,LOX IMVI melanoma,24.1 µM
same,TGI,LOX IMVI melanoma,61.9 µM
same,GI50,CCRF-CEM leukemia,29.7 µM
same,TGI,CCRF-CEM leukemia,96.7 µM
same,GI50,MDA-MB-231 breast,18.8 µM
same,TGI,MDA-MB-231 breast,45.8 µM
same,GI50,DU-145 prostate,22.6 µM
same,TGI,DU-145 prostate,45.2 µM
same,GI50,U251 CNS,18.2 µM
same,TGI,U251 CNS,39.2 µM
same,GI50,KM12 colon,17.1 µM
same,TGI,KM12 colon,32.6 µM
same,GI50,SNB-19 CNS,19.8 µM
same,TGI,SNB-19 CNS,44.2 µM
same,GI50,NCI-H23 lung,18.4 µM
same,TGI,NCI-H23 lung,50.9 µM
same,GI50,OVCAR-4 ovarian,22.9 µM
same,TGI,OVCAR-4 ovarian,70.9 µM
same,GI50,SN12C renal,18.2 µM
same,TGI,SN12C renal,37.5 µM
same,GI50,NCI-H460 lung,26.6 µM
same,TGI,NCI-H460 lung,77.7 µM
same,GI50,HCT-15 colon,32.3 µM
same,TGI,HCT-15 colon,> 100 µM
same,GI50,SF-268 CNS,22.7 µM
same,TGI,SF-268 CNS,59.6 µM
O=C(/C(=C/c1ccc([N+](=O)[O-])cc1)c1ccccc1)c1ccccc1,GI50,RXF 393 renal,2.78 µM
same,TGI,RXF 393 renal,6.78 µM
same,GI50,M14 melanoma,3.08 µM
same,TGI,M14 melanoma,> 100 µM
same,GI50,T-47D breast,3.13 µM
same,TGI,T-47D breast,> 100 µM
same,GI50,NCI/ADR-RES ovarian,3.23 µM
same,TGI,NCI/ADR-RES ovarian,> 100 µM
same,GI50,SK-OV-3 ovarian,4.19 µM
same,TGI,SK-OV-3 ovarian,> 100 µM
same,GI50,HCC-2998 colon,2.38 µM
same,TGI,HCC-2998 colon,5.24 µM
same,GI50,K-562 leukemia,3.08 µM
same,TGI,K-562 leukemia,> 100 µM
same,GI50,TK-10 renal,3.43 µM
same,TGI,TK-10 renal,> 100 µM
same,GI50,IGROV1 ovarian,3.25 µM
same,TGI,IGROV1 ovarian,> 100 µM
same,GI50,RPMI-8226 leukemia,2.36 µM
same,TGI,RPMI-8226 leukemia,6.49 µM
same,GI50,A498 renal,1.98 µM
same,TGI,A498 renal,8.86 µM
same,GI50,HS 578T breast,2.74 µM
same,TGI,HS 578T breast,> 100 µM
same,GI50,COLO 205 colon,3.81 µM
same,TGI,COLO 205 colon,18.2 µM
same,GI50,HOP-92 NSCLC,2.22 µM
same,TGI,HOP-92 NSCLC,6.98 µM
same,GI50,SNB-75 CNS,2.11 µM
same,TGI,SNB-75 CNS,7.32 µM
same,GI50,HT29 colon,3.33 µM
same,TGI,HT29 colon,> 100 µM
same,GI50,A549 NSCLC,3.8 µM
same,TGI,A549 NSCLC,> 100 µM
same,GI50,SK-MEL-28 melanoma,2.27 µM
same,TGI,SK-MEL-28 melanoma,5.63 µM
same,GI50,SF-295 CNS,3.56 µM
same,TGI,SF-295 CNS,> 100 µM
same,GI50,MCF7 breast,3.2 µM
same,TGI,MCF7 breast,> 100 µM
same,GI50,OVCAR-3 ovarian,2.36 µM
same,TGI,OVCAR-3 ovarian,5.64 µM
same,GI50,PC-3 prostate,4.28 µM
same,TGI,PC-3 prostate,> 100 µM
same,GI50,OVCAR-5 ovarian,4.91 µM
same,TGI,OVCAR-5 ovarian,> 100 µM
same,GI50,HOP-62 NSCLC,2.78 µM
same,TGI,HOP-62 NSCLC,6.12 µM
same,GI50,786-0 renal,3.56 µM
same,TGI,786-0 renal,> 100 µM
same,GI50,BT-549 breast,2.57 µM
same,TGI,BT-549 breast,7.12 µM
same,GI50,CCRF-CEM leukemia,2.25 µM
same,TGI,CCRF-CEM leukemia,> 100 µM
same,GI50,MDA-MB-231 breast,3.16 µM
same,TGI,MDA-MB-231 breast,> 100 µM
same,GI50,DU-145 prostate,3.17 µM
same,TGI,DU-145 prostate,> 100 µM
same,GI50,HL-60(TB) leukemia,2.29 µM
same,TGI,HL-60(TB) leukemia,5.71 µM
same,GI50,KM12 colon,3.06 µM
same,TGI,KM12 colon,9.52 µM
same,GI50,SNB-19 CNS,3.9 µM
same,TGI,SNB-19 CNS,> 100 µM
same,GI50,OVCAR-4 ovarian,3.57 µM
same,TGI,OVCAR-4 ovarian,> 100 µM
same,GI50,SR leukemia,2.79 µM
same,TGI,SR leukemia,> 100 µM
same,GI50,NCI-H460 lung,2.34 µM
same,TGI,NCI-H460 lung,5.93 µM
same,GI50,HCT-15 colon,2.85 µM
same,TGI,HCT-15 colon,> 100 µM
same,GI50,SF-268 CNS,3.55 µM
same,TGI,SF-268 CNS,> 100 µM
